How the values were obtained:
Assay type in all cases: functional
Aspergillus niger = assay: Antifungal activity against Aspergillus niger ATCC 16404 assessed as growth inhibition at 10 ug/mL after 72 hr by agar cup plate method; details: ATCC 16404, 72 h, read-out: DIZ
Aspergillus fumigatus = assay: Antifungal activity against Aspergillus fumigatus ATCC 28212 assessed as growth inhibition at 10 ug/mL after 72 hr by agar cup plate method; details: ATCC 28212, 72 h, read-out: DIZ
Escherichia coli = assay: Antibacterial activity against Escherichia coli ATCC 35218 assessed as growth inhibition at 10 ug/mL after 24 hr by agar disc diffusion method; details: ATCC 35218, 24 h, read-out: DIZ
Bacillus spizizenii = assay: Antibacterial activity against Bacillus subtilis subsp. spizizenii ATCC 6633 assessed as growth inhibition at 10 ug/mL after 24 hr by agar disk diffusion method; details: ATCC 6633, 24 h, read-out: DIZ

Row | SMILES | zone of inhibition at 10 µg/mL (Aspergillus niger) [mm] | zone of inhibition at 10 µg/mL (Aspergillus fumigatus) [mm] | zone of inhibition at 10 µg/mL (Escherichia coli) [mm] | zone of inhibition at 10 µg/mL (Bacillus spizizenii) [mm]
1 | CS(=O)(=O)Nc1sc2c(c1C(=O)NN1C(=O)C(Cl)C1c1ccc([N+](=O)[O-])cc1)CCCC2 (stereo unspecified) | 16 | 6 | 10 | 8
2 | CS(=O)(=O)Nc1sc2c(c1C(=O)NN1C(=O)C(Cl)C1c1cccc([N+](=O)[O-])c1)CCCC2 (stereo unspecified) | 18 | 8 | 10 | 7
3 | COc1ccc(C2C(Cl)C(=O)N2NC(=O)c2c(NS(C)(=O)=O)sc3c2CCCC3)cc1OC (stereo unspecified) | 21 | 9 | 8 | 7
4 | CS(=O)(=O)Nc1sc2c(c1C(=O)NN1C(=O)C(Cl)C1c1coc3ccccc3c1=O)CCCC2 (stereo unspecified) | 14 | 7 | 8 | 6
5 | CS(=O)(=O)Nc1sc2c(c1C(=O)NN1C(=O)C(Cl)C1c1ccccc1)CCCC2 (stereo unspecified) | 13 | 4 | 6 | 6
6 | O=C(O)c1cn(C2CC2)c2cc(N3CCNCC3)c(F)cc2c1=O [CIPROFLOXACIN] | – | – | 12 | 9
7 | CC(=O)N1CCN(c2ccc(OCC3COC(Cn4ccnc4)(c4ccc(Cl)cc4Cl)O3)cc2)CC1 (stereo unspecified) [KETOCONAZOLE] | 25 | 10 | – | –
8 | CS(=O)(=O)Nc1sc2c(c1C(=O)NN1C(=O)C(Cl)C1c1c[nH]c3ccccc13)CCCC2 (stereo unspecified) | 12 | 7 | 9 | 7
9 | COc1ccc(C2C(Cl)C(=O)N2NC(=O)c2c(NS(C)(=O)=O)sc3c2CCCC3)cc1 (stereo unspecified) | 12 | 6 | 8 | 6
10 | CS(=O)(=O)Nc1sc2c(c1C(=O)NN1C(=O)CSC1c1ccc(Cl)cc1)CCCC2 (stereo unspecified) | 13 | 7 | 8 | 8
11 | COc1ccc(C2SCC(=O)N2NC(=O)c2c(NS(C)(=O)=O)sc3c2CCCC3)cc1OC (stereo unspecified) | 12 | 6 | 7 | 6
12 | CS(=O)(=O)Nc1sc2c(c1C(=O)NN1C(=O)CSC1c1ccc([N+](=O)[O-])cc1)CCCC2 (stereo unspecified) | 15 | 8 | 10 | 8
13 | Clc1ccccc1C(c1ccccc1)(c1ccccc1)n1ccnc1 [CLOTRIMAZOLE] | 21 | 20 | – | –
14 | CS(=O)(=O)Nc1sc2c(c1C(=O)NN1C(=O)CSC1c1cc3ccccc3nc1Cl)CCCC2 (stereo unspecified) | 19 | 8 | 8 | 6
15 | CS(=O)(=O)Nc1sc2c(c1C(=O)NN1C(=O)CSC1c1cccc([N+](=O)[O-])c1)CCCC2 (stereo unspecified) | 14 | 6 | 7 | 7
16 | CS(=O)(=O)Nc1sc2c(c1C(=O)NN1C(=O)CSC1c1ccccc1)CCCC2 (stereo unspecified) | 9 | 5 | 6 | 5
17 | COc1ccc(C2SCC(=O)N2NC(=O)c2c(NS(C)(=O)=O)sc3c2CCCC3)cc1 (stereo unspecified) | 14 | 6 | 11 | 5
18 | CS(=O)(=O)Nc1sc2c(c1C(=O)NN1C(=O)CSC1c1ccccc1Cl)CCCC2 (stereo unspecified) | 20 | 6 | 11 | 6
19 | CS(=O)(=O)Nc1sc2c(c1C(=O)NN1C(=O)CSC1c1c[nH]c3ccccc13)CCCC2 (stereo unspecified) | 18 | 6 | 10 | 6
20 | CS(=O)(=O)Nc1sc2c(c1C(=O)NN1C(=O)CSC1c1coc3ccccc3c1=O)CCCC2 (stereo unspecified) | 12 | 4 | 7 | 7
21 | CS(=O)(=O)Nc1sc2c(c1C(=O)NN1C(=O)C(Cl)C1c1ccccc1Cl)CCCC2 (stereo unspecified) | 15 | 6 | 7 | 7
22 | CS(=O)(=O)Nc1sc2c(c1C(=O)NN1C(=O)C(Cl)C1c1ccc(Cl)cc1)CCCC2 (stereo unspecified) | 13 | 5 | 9 | 8
23 | CS(=O)(=O)Nc1sc2c(c1C(=O)NN1C(=O)C(Cl)C1c1cc3ccccc3nc1Cl)CCCC2 (stereo unspecified) | 22 | 6 | 6 | 6

— ChEMBL document CHEMBL3045979, “Synthesis and antimicrobial activities of highly functionalised novel -lactam and thiazolidine-grafted tetrahydrobenzothiophenes” (2013)
